Laboratory results as given in PMC5007476, “Use of cross-reactivity immunoassay to orient insulin replacement in diabetic patients with high levels of insulin antibodies” (MethodsX, 2016).
Like-named read-outs stand apart in the source and are kept apart here. Values belong to the substance of their own block, whether it stands above or below them.

Columns and labels:
[1] = cited from earlier work
From the text: Detemir is an insulin analog in which a fatty acid (myristic acid) is bound to the lysine amino acid at position B29. […] Accordingly, its persistence as a potential antigen in circulation must not be ruled out. Glargine was created by modifying three amino acids. […] In order to avoid ... || Glulisine is a rapid-acting insulin analog that differs from human insulin in that the amino acid asparagine at position B3 is replaced by lysine and the lysine in position B29 is replaced by glutamic acid.

[2] = tested on: serum albumin; settings: background, no reference given; cited from earlier work
From the text: (§1) Detemir is an insulin analog in which a fatty acid (myristic acid) is bound to the lysine amino acid at position B29. […] Accordingly, its persistence as a potential antigen in circulation must not be ruled out. Glargine was created by modifying three amino acids. […] In order to avoid ...

[3] = tested on: insulin antibodies (IA) in patient serum; assay: Displacement radioimmunoassay (RIA) for affinity and cross-reactivity of insulin antibodies in patient serum; assay type: binding, human; settings: for Selectivity (S = KL/KCi): at start of study, KL = K0 of regular human insulin, KCi = K0 of the competitor analog; for K0, average (median) affinity constant: at start of study (before change of insulin), patient serum 30 μL, duplicates, 5 days at 4 °C (near equilibrium), tracer mono [^125I A14] insulin ~20,000 cpm (5.8 × 10^−11 M), competitor 1 × 10^−9 to 10^−6 M
Method: The homogeneous mono [^125I A14]
For in vitro cross-reactivity assessment a displacement RIA was applied by using the tracer described above. Briefly, duplicate 30 μL serum samples from the patient were incubated during 5 days at 4 °C (near equilibrium) with a constant amount of tracer (∼20,000 cpm). […] Insulin analogs were engineered to enhance desired molecular properties without altering immunogenicity, at least in theory. However, since the amino acid sequence of these insulin variants were changed to alter its absorption, distribution, metabolism and excretion characteristics, some residual capacity to elicit specific antibodies must be expected. […] Also the grade of alteration of the natural insulin molecule is of importance.
In order to express the degree of cross reactivity of IA induced by the initial insulin formulation (¨Ligand̈, L), against a panel of slow or fast action insulin analogs as described above (Competitors̈, Ci), the parameter selectivity (S), as defined elsewhere (Berzofsky and Schechter; Berzofsky et al.), was employed. Approximate values for average (median) affinity (K0) for L and those from each Ci, were obtained from the plots of B/F signals as a function of each competitor concentration, interpolating in the abscissa axis the respective doses corresponding to the maximum/2 signal [(B/F)0/2] (Graphical abstract, RIA plot). Alternatively, a best fit to the true affinity constants was obtained by representing B/F signals for each ligand as a function of free tracer (F) calculated by the formula: F = [C/(1 + B/F)]. It is important to emphasize that the molar concentration of the tracer in the test must be lower than the inverse of K0 value. This condition precludes the preparation of the respective labeled competitors to perform specific single RIAs for each homologous ligand. (Berzofsky and Schechter). In the RIA the concentration of tracer was 5.8 × 10^−11 M (see Preparation of the homogeneous tracer mono [^125I A14] Insulin) and K0 values for IA (ranging 10^6–10^8 M^−1) were obtained from previous work of our laboratory (Trabucchi et al.; Trabucchi et al.).
Finally, the respective Selectivity ratios were obtained using the expression: Si = KL/KCi.

[4] = background, no reference given, cited from earlier work
From the text: as §1

[5] = tested on: anti-insulin antibodies (IA)
Method: Insulin used as a tracer for both radiometric methods, RBA and RIA, was produced using recombinant human insulin (HumulinC from Eli Lilly, Indiana, USA) devoid of preservative substances by chromatography on a Sephadex G25 column (Amersham Biosciences, New Jersey, USA). The labeling and HPLC purification steps were carried out following as indicated by Linde et al. [3] and Jørgensen et al. [4], respectively. Specific radioactivity of roughly 300–380 μCi/μg was routinely achieved.
The concentration of tracer in both, RBA and RIA, was 5.8 × 10^−11, calculated from an activity of 20,000 cpm; Relative mass of insulin, 5808 Da; Final incubation volume, 0,12 mL; Gamma counter efficiency, 70%; Specific activity of fresh insulin tracer, 380 μCi/μg.
Radioligand binding assay for IA assessment, performed routinely as official analysis service at IDEHU-CONICET laboratory, was based on the original procedure indicated by Kurtz et al. [5] and carried out essentially as previously described by Stumpo et al. [6]. […] Results were expressed as specific insulin binding percentage B% = Bwi% (preincubated without cold insulin) – Bie% (preincubated with excess cold insulin). Reproducibility was assessed at different binding levels. […]

[6] = Metabolic control of the patient (glycaemia, HbA1c) under insulin treatment; assay type: in vivo, human
[7] = tested on: insulin receptor; settings: effect of the sequence modification; background, no reference given; cited from earlier work
From the text: (§2) Lispro was engineered through recombinant DNA technology so that the penultimate lysine and proline residues on the C-terminal end of the B-chain were reversed. […] This allowed larger amounts of active monomeric insulin to be available for postprandial (after meal) injections. Similar to Glulisine, the monomeric state of Lispro theoretically may diminish the chance of phagocytosis by cells of the Immune System resulting in lower immunogenicity.

[8] = effect of the sequence modification; background, no reference given; cited from earlier work
From the text: as §2

[9] = after 6 months of Glulisine 0,6 IU/Kg/day by pump infusion
[10] = before change, more than 3 IU/kg/day NPH human insulin complemented with crystalline human insulin

Substance: Glargine
duration/onset of action (in words) ([1]; background, no reference given): prolonged action when compared with biosynthetic human insulin | solubility at physiological pH (in words) ([4]; physiological pH): less soluble at a physiological pH | isoelectric point ([4]; shifted from 5.4 by two added arginine residues): 6.7 | solubility at slightly acidic pH (in words) ([4]; slightly acidic pH): more soluble at a slightly acidic pH | K0, average (median) affinity constant [3]: 2.1e+07 M⁻¹ | Selectivity (S = KL/KCi) [3]: 37.6

Substance: Glulisine
duration/onset of action (in words) ([1]; background, no reference given): rapid-acting | change of B% signal (in words) [5]: significant decrease in B% signal | HbA1c [6, 9]: 7.6% | HbA1c (IFCC) [6, 9]: 60 mmol/mol | metabolic control (in words) [6, 9]: recovered metabolic control | K0, average (median) affinity constant [3]: 1e+06 M⁻¹ | Selectivity (S = KL/KCi) [3]: 790 | IA binding rate compared with regular human insulin ([3]; in vitro, at the same doses, start of study): 1/790

Substance: NPH human insulin: NPH human insulin (Humulin – Eli Lilly) complemented with crystalline human insulin
HbA1C [6, 10]: 11% | HbA1C (IFCC) [6, 10]: 97 mmol/mol | metabolic control (in words) ([6]; before change, more than 3 IU/kg/day NPH human insulin complemented with crystalline human insulin, last two years): inadequate metabolic control

The next lines start with results.

Selectivity (S = KL/KCi) [3]: ~1
Substance: Detemir
duration/onset of action (in words) [1]: increasing its duration of action | affinity for serum albumin (in words) [2]: high affinity for serum albumin

K0, average (median) affinity constant [3]: 1.96e+07 M⁻¹ | Selectivity (S = KL/KCi) [3]: 40.3 | K0, affinity constant ([3]; control RIA on serum sample after 14 months (of Glulisine treatment)): 3.4e+07 M⁻¹
Substance: Lispro
insulin receptor binding (in words) [7]: did not alter the insulin receptor binding | formation of insulin dimers and hexamers (in words) [8]: blocked the formation of insulin dimers and hexamers

K0, average (median) affinity constant [3]: 7.9e+08 M⁻¹
Substance: regular human insulin: unlabeled regular crystalline human insulin (Humulin, Eli Lilly)
